Reference: publication PMC7544826 (Communications Biology, 2020)
“Also recorded” adds a separate entry of the source.

Legend:
Notum [1] = target: T1, Notum (Homo sapiens, UniProt Q6P988, C330S); assay: Thermal shift assay (SYPRO Orange) of Notum; details: compound 500 µM; for Thermoflour melting curve fluorescence of Notum: Fig 2c
T1 sequence (Q6P988 81-451 C330S): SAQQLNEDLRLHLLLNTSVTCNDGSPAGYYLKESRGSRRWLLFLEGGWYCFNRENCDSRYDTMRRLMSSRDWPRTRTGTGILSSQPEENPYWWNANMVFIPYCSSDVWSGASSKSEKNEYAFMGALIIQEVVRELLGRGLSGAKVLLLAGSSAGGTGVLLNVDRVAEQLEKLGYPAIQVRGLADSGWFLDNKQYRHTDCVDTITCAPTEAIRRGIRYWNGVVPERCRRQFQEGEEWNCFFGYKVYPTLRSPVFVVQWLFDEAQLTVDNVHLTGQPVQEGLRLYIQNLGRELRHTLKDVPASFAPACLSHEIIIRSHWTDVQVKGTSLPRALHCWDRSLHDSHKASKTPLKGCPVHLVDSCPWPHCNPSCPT
Experimental: Reference wells, i.e. solutions without compounds were used to compare the melting temperature (Tm). The experiments were performed in triplicate.

Notum [2] = target: T1, Notum; assay: Notum activity assay with OPTS as substrate; assay type: biochemical; parameters: The human Notum enzyme core comprising amino acids S81–T451 with a C330S mutation; made in house; dialyzed conditioned medium used without purification; details: result in words
Experimental: OPTS is a common lipase substrate with an octanoyl lipid linked to a fluorescent moiety. It is not a natural Notum substrate; however, it can be used to quantify the enzymatic activity of purified Notum protein[23],[25],[28]. […] The fluorescent lipase substrate OPTS was dissolved in water at a concentration of 20 µM. […] The inhibition curves were fitted with a one-site model with GraphPad Prism 8 software.

Notum [3] = target: T1, Notum; assay: SPR equilibrium binding to biotinylated Notum on streptavidin chip; parameters: The human Notum enzyme core comprising amino acids S81–T451 with a C330S mutation; made in house; dialyzed conditioned medium used without purification; details: result in words
Experimental: The human Notum core sequence was cloned in a pHL-Avi3 vector[49] and co-transfected with the pDisplay_BirA-ER plasmid[50] into HEK293T cells with the media supplemented with 20 µM biotin. This procedure allows in vivo biotinylation to occur, and the dialyzed conditioned medium was directly used for SA sensor chip immobilization without protein purification. […] Approximately 2500 resonance units (RU) of the biotinylated Notum was coupled onto the chip. […] The response was plotted versus the concentration of the analytes and fitted by nonlinear regression to a one-site saturation binding model (GraphPad Prism 8).

Substance: 1,5-dimethylxanthine [theobromine]
- Thermoflour melting curve fluorescence of Notum (Notum [1]; Temperature 24.5): 1404.51
- Thermoflour melting curve fluorescence of Notum (Notum [1]; Temperature 25.5): 1219.92
- Thermoflour melting curve fluorescence of Notum (Notum [1]; Temperature 26.5): 1040.89
- Thermoflour melting curve fluorescence of Notum (Notum [1]; Temperature 27.5): 912.702
- Thermoflour melting curve fluorescence of Notum (Notum [1]; Temperature 28.5): 812.506
- Thermoflour melting curve fluorescence of Notum (Notum [1]; Temperature 29.5): 748.934
- Thermoflour melting curve fluorescence of Notum (Notum [1]; Temperature 30.5): 702.942
- Thermoflour melting curve fluorescence of Notum (Notum [1]; Temperature 31.5): 648.106
- Thermoflour melting curve fluorescence of Notum (Notum [1]; Temperature 32.5): 580.173
- Thermoflour melting curve fluorescence of Notum (Notum [1]; Temperature 33.5): 507.838
- Thermoflour melting curve fluorescence of Notum (Notum [1]; Temperature 34.5): 418.887
- Thermoflour melting curve fluorescence of Notum (Notum [1]; Temperature 35.5): 274.731
- Thermoflour melting curve fluorescence of Notum (Notum [1]; Temperature 36.5): 90.4697
- Thermoflour melting curve fluorescence of Notum (Notum [1]; Temperature 37.5): -139.16
- Thermoflour melting curve fluorescence of Notum (Notum [1]; Temperature 38.5): -392.32
- Thermoflour melting curve fluorescence of Notum (Notum [1]; Temperature 39.5): -608.25
- Thermoflour melting curve fluorescence of Notum (Notum [1]; Temperature 40.5): -782.991
- Thermoflour melting curve fluorescence of Notum (Notum [1]; Temperature 41.5): -908.263
- Thermoflour melting curve fluorescence of Notum (Notum [1]; Temperature 42.5): -987.266
- Thermoflour melting curve fluorescence of Notum (Notum [1]; Temperature 43.5): -1014
- Thermoflour melting curve fluorescence of Notum (Notum [1]; Temperature 44.5): -973.707
- Thermoflour melting curve fluorescence of Notum (Notum [1]; Temperature 45.5): -878.635
- Thermoflour melting curve fluorescence of Notum (Notum [1]; Temperature 46.5): -736.376
- Thermoflour melting curve fluorescence of Notum (Notum [1]; Temperature 47.5): -559.758
- Thermoflour melting curve fluorescence of Notum (Notum [1]; Temperature 48.5): -346.91
- Thermoflour melting curve fluorescence of Notum (Notum [1]; Temperature 49.5): -78.207
- Thermoflour melting curve fluorescence of Notum (Notum [1]; Temperature 50.5): 248.299
- Thermoflour melting curve fluorescence of Notum (Notum [1]; Temperature 51.5): 600.666
- Thermoflour melting curve fluorescence of Notum (Notum [1]; Temperature 52.5): 986.098
- Thermoflour melting curve fluorescence of Notum (Notum [1]; Temperature 53.5): 1440.99
- Thermoflour melting curve fluorescence of Notum (Notum [1]; Temperature 54.5): 1961.08
- Thermoflour melting curve fluorescence of Notum (Notum [1]; Temperature 55.5): 2560.53
- Thermoflour melting curve fluorescence of Notum (Notum [1]; Temperature 56.5): 3253.14
- Thermoflour melting curve fluorescence of Notum (Notum [1]; Temperature 57.5): 4045.69
- Thermoflour melting curve fluorescence of Notum (Notum [1]; Temperature 58.5): 5053.15
- Thermoflour melting curve fluorescence of Notum (Notum [1]; Temperature 59.5): 6367.38
- Thermoflour melting curve fluorescence of Notum (Notum [1]; Temperature 60.5): 8116.48
- Thermoflour melting curve fluorescence of Notum (Notum [1]; Temperature 61.5): 10309.5
- Thermoflour melting curve fluorescence of Notum (Notum [1]; Temperature 62.5): 12803.5
- Thermoflour melting curve fluorescence of Notum (Notum [1]; Temperature 63.5): 15345.7
- Thermoflour melting curve fluorescence of Notum (Notum [1]; Temperature 64.5): 17689.5
- Thermoflour melting curve fluorescence of Notum (Notum [1]; Temperature 65.5): 19737.1
- Thermoflour melting curve fluorescence of Notum (Notum [1]; Temperature 66.5): 21432.6
- Thermoflour melting curve fluorescence of Notum (Notum [1]; Temperature 67.5): 22887.7
- Thermoflour melting curve fluorescence of Notum (Notum [1]; Temperature 68.5): 24216
- Thermoflour melting curve fluorescence of Notum (Notum [1]; Temperature 69.5): 25446.3
- Thermoflour melting curve fluorescence of Notum (Notum [1]; Temperature 70.5): 26564.8
- Thermoflour melting curve fluorescence of Notum (Notum [1]; Temperature 71.5): 27592.2
- Thermoflour melting curve fluorescence of Notum (Notum [1]; Temperature 72.5): 28538.2
- Thermoflour melting curve fluorescence of Notum (Notum [1]; Temperature 73.5): 29406
- Thermoflour melting curve fluorescence of Notum (Notum [1]; Temperature 74.5): 30226.8
- Thermoflour melting curve fluorescence of Notum (Notum [1]; Temperature 75.5): 30994.2
- Thermoflour melting curve fluorescence of Notum (Notum [1]; Temperature 76.5): 31712.3
- Thermoflour melting curve fluorescence of Notum (Notum [1]; Temperature 77.5): 32380.8
- Thermoflour melting curve fluorescence of Notum (Notum [1]; Temperature 78.5): 33030.5
- Thermoflour melting curve fluorescence of Notum (Notum [1]; Temperature 79.5): 33697.5
- Thermoflour melting curve fluorescence of Notum (Notum [1]; Temperature 80.5): 34352.1
- Thermoflour melting curve fluorescence of Notum (Notum [1]; Temperature 81.5): 34969.9
- Thermoflour melting curve fluorescence of Notum (Notum [1]; Temperature 82.5): 35562.2
- Thermoflour melting curve fluorescence of Notum (Notum [1]; Temperature 83.5): 36162.5
- Thermoflour melting curve fluorescence of Notum (Notum [1]; Temperature 84.5): 36803.8
- Thermoflour melting curve fluorescence of Notum (Notum [1]; Temperature 85.5): 37475.6
- Thermoflour melting curve fluorescence of Notum (Notum [1]; Temperature 86.5): 38149.2
- Thermoflour melting curve fluorescence of Notum (Notum [1]; Temperature 87.5): 38788.7
- Thermoflour melting curve fluorescence of Notum (Notum [1]; Temperature 88.5): 39302.1
- Thermoflour melting curve fluorescence of Notum (Notum [1]; Temperature 89.5): 39800.1
- Thermoflour melting curve fluorescence of Notum (Notum [1]; Temperature 90.5): 40397.5
- Thermoflour melting curve fluorescence of Notum (Notum [1]; Temperature 91.5): 41008.7
- Thermoflour melting curve fluorescence of Notum (Notum [1]; Temperature 92.5): 41535.5
- Thermoflour melting curve fluorescence of Notum (Notum [1]; Temperature 93.5): 42071.6
- Thermoflour melting curve fluorescence of Notum (Notum [1]; Temperature 94.5): 42644
- Thermoflour melting curve fluorescence of Notum (Notum [1]; Temperature 95.5): 43225
- Thermoflour melting curve fluorescence of Notum (Notum [1]; Temperature 96.5): 43850.3
- Thermoflour melting curve fluorescence of Notum (Notum [1]; Temperature 97.5): 44460.4
- Effect on Tm of Notum (Notum [1]): little effect on the Tm
- Melting temperature (Tm) of Notum (Notum [1]; Notum without compounds Tm 63.6 °C): 63.4 °C
- Notum inhibitory effect in OPTS enzyme assay (Notum [2]): could not detect obvious Notum inhibitory effects
- Binding to Notum (SPR response) (Notum [3]): did not observe significant responses; also recorded: do not bind Notum
